The results in this text go back to PubChem BioAssay (NCI).

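Following 48 hours of exposure in 96-well plates, responses at five concentrations were used to interpolate endpoints linearly. GI50: concentration for 50% inhibition of growth. TGI marks complete inhibition of growth.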

Common to all, as to assay: NCI tumour cell line growth inhibition, 48 h
The test system of assay [1] is EKVX NSCLC.
The subject of assay [2] is M14 melanoma.
Assay [3] concerns NCI-H226 lung.
Assay [4] relates to NCI-H23 lung.
Assay [5] has as its system OVCAR-4 ovarian.
Assay [6] deals with OVCAR-5 ovarian.
In assay [7] the test system is SNB-75 CNS.
For assay [8], the system named is U251 CNS.
In assay [9] the test system is UO-31 renal.
Assay [10] relates to CCRF-CEM leukemia.

Consider `COC1=C(Br)C(=O)c2nc(C)ccc2C1=O`, for which the TGI stood at 33.4 µM in assay [1]; 28.4 µM in [2]; 38.2 µM in [3]; 27 µM in assay [4]; 26.3 µM in [5]; 34.7 µM in assay [6]. The TGI in [7] was 33.8 µM; in [8], 28.5 µM; in assay [9], 32.4 µM.
Take `O=C(NO)c1ccc(CN(c2cnccn2)c2cnccn2)cc1`: the GI50 in [10] is 11.2 µM; in assay [1] it was 15.9 µM; in assay [2] it was 11.1 µM; in assay [3] it was 20 µM; in assay [5], 16.1 µM; in assay [6], 14.7 µM. For the same compound, the GI50 in assay [7] is 14.6 µM; in assay [8], 7.74 µM; in assay [9], 12.9 µM. In addition, the TGI in assay [10] was over 100 µM; in [1], 36.7 µM; in [2], 28.3 µM; in [3], 65.7 µM; in [5], 97.7 µM; in assay [6] it was 52.6 µM. The TGI in assay [7] turned out to be 38.7 µM; in [8] it was 21.4 µM; in assay [9], 26.4 µM.
In the case of `O=C1CSC(c2ccc(-c3nc4ccccc4s3)cc2)=N1`, the GI50 in assay [1] is 1.81 µM; in [2] it was 38.6 µM; in assay [5] it was 41.1 µM; in assay [6], 26.3 µM; in assay [7], over 100 µM; in assay [8], 28 µM. In addition, in [9], the GI50 was 74.8 µM. The TGI in [1] is 13.5 µM; in [2], over 100 µM; in assay [5] it was over 100 µM; in assay [6], over 100 µM; in [7], over 100 µM; in assay [8] it was over 100 µM. This compound had a TGI in [9] of over 100 µM.
For the compound `Clc1ccc(N=CNc2ccc(-c3nc4ccccc4o3)cc2)cc1`, the GI50 in assay [1] is 0.241 µM; in [2], 56.4 µM; in [3] it was 27.2 µM; in assay [6], 33.3 µM; in [8], 23.4 µM; in assay [9], 40.6 µM. Besides, the TGI in [1] is 2.84 µM; in assay [2], over 100 µM; in assay [3] it was over 100 µM; in assay [6], 99.6 µM; in [8], 91.3 µM; in assay [9] it was over 100 µM.
For `CCN(CC)c1cc2oc3cc(N)cc(=N)c-3nc2cc1C`, the GI50 was 4.02 µM in assay [1]; 2.25 µM in assay [2]; 3.39 µM in [3]; 2.11 µM in assay [4]; 2.82 µM in assay [6]; 2.84 µM in assay [7]. Also, the GI50 is 3.13 µM in assay [8] and 3.38 µM in assay [9]. Moreover, the TGI was 54.6 µM in [1]; 4.92 µM in assay [2]; 42.8 µM in [3]; 17.9 µM in assay [4]; 7.4 µM in assay [6]; 13.4 µM in assay [7]. In addition, the TGI in [8] is 14.7 µM; in assay [9], 49 µM.
Regarding `CC1=C(c2cc(C(=O)Nc3ccc(Cl)cc3)nc(=S)[nH]2)Sc2ccccc2N1`, the TGI in [10], in [1], in assay [2], in assay [4], in assay [5] and in assay [6] was over 100 µM each time. For the same compound, the TGI in [7], in assay [8] and in [9] was over 100 µM throughout.
With `Cc1ccc(Nc2nnc(-c3ccc4c(c3)OCO4)o2)c(C)c1`, the TGI in assay [1], in assay [2], in [3], in assay [4], in assay [5] and in assay [6] was over 100 µM each time. Moreover, the TGI in assay [7], in assay [8] and in assay [9] was over 100 µM in each case.
Regarding `C=C1CC[C@@H](C(C)C)C[C@@H]2[C@H]([C@H](O)C[C@]2(C)O)[C@@]2(C)CC[C@@H]1O2`, the GI50 was 28 µM in assay [1]; 19.3 µM in assay [2]; 16.8 µM in assay [3]; 20.1 µM in assay [4]; 14.8 µM in assay [5]; 13.2 µM in assay [6]. For the same compound, the GI50 is 17 µM in assay [7], 16.9 µM in assay [8] and 17.3 µM in [9]. The TGI stood at 55.9 µM in assay [1]; 33.4 µM in assay [2]; 31.5 µM in assay [3]; 42.7 µM in assay [4]; 28 µM in assay [5]; 26 µM in assay [6]. Also, the TGI stood at 38.9 µM in assay [7], 30.5 µM in assay [8] and 31.1 µM in [9].
`CCOc1ccccc1NC(=O)C(=O)Cc1nc2ccccc2s1`: the TGI in [10], in assay [1], in assay [2], in assay [3], in assay [4] and in [5] was over 100 µM in each case. Besides, the TGI in assay [7], in assay [8] and in assay [9] was over 100 µM throughout.
Turning to `CC1=C(C(=O)NNS(=O)(=O)c2ccc(C)cc2)CC(C(=O)NNS(=O)(=O)c2ccc(C)cc2)=C(C)N1`, the TGI in [1], in assay [2], in assay [3], in assay [4], in [5] and in [6] was over 100 µM each time. Moreover, the TGI in [8] and in assay [9] was over 100 µM throughout.
Consider `CO/N=C(/C)c1cccc(Nc2cc(-c3ccccc3)nc3ccc(OC)cc23)c1`, for which the GI50 in assay [1] is 10.8 µM; in [2], 6.92 µM; in assay [3], 15.7 µM; in assay [4], 6.08 µM; in [5] it was 20.2 µM; in assay [6] it was 15.3 µM. For the same compound, the figures for the GI50 in [7], in assay [8] and in [9] were 42.9 µM, 6.62 µM and 15.5 µM, respectively. The TGI in assay [1] amounted to 30.3 µM; in assay [2], 25.3 µM; in assay [3], 41 µM; in assay [4], 27.4 µM; in assay [5], 66.6 µM; in [6], 37.3 µM. The TGI in assay [7] is over 100 µM; in assay [8] it was 23.7 µM; in assay [9], over 100 µM.
Take `O=C(OCC(OC(=O)c1ccccc1)C(OC(=O)c1ccccc1)C(OC(=O)c1ccccc1)c1cnn(-c2ccccc2)n1)c1ccccc1` (centres undefined): the TGI in assay [10], in assay [1], in assay [2], in assay [3], in assay [4] and in assay [5] was over 100 µM in each case. Also, the TGI in assay [6] and in assay [9] was over 100 µM each time.
With `O=C1C(Cl)=C(Nc2ccccc2O)C(=O)N1Cc1ccccc1`, the GI50 in [10] was 14.5 µM; in assay [2], 18.4 µM; in [3], 20.1 µM; in [4], 17.9 µM; in [5] it was 43.1 µM; in assay [6], 18.5 µM. In addition, the results for the GI50 in assay [8] and in assay [9] were 19.2 µM and 15.9 µM, respectively. In addition, the TGI in assay [10] was 32.7 µM; in [2], 32.3 µM; in assay [3], 48.8 µM; in [4] it was 31.7 µM; in [5], over 100 µM; in assay [6] it was 32.7 µM. Further, the TGI amounted to 36.5 µM in assay [8] and 29.3 µM in [9].
As for `O=C1C(=O)N(c2cc(Cl)ccc2Cl)C(=O)C(=O)C1c1nc2ccccc2o1`, the TGI in assay [10], in assay [1], in assay [2], in [4], in [5] and in [6] was over 100 µM each time. Also, the TGI in assay [7], in [8] and in assay [9] was over 100 µM each time.
For the compound `CC(C)C1=C2CCC3(C)C(CCC4C5C6OCC5(CCC6(C)C)CCC43C)C2(C)CC1` (centres undefined), the TGI in [10] was 31.9 µM; in assay [1] it was 39.2 µM; in assay [2] it was 41.6 µM; in [3], over 100 µM; in [4], 54.5 µM; in assay [5], 77.5 µM. The results for the TGI in [6], in assay [8] and in [9] were over 100 µM, 37 µM and 33.8 µM, respectively.
As for `C=CCN1CC2CON(C(=O)C(OC)(c3ccccc3)C(F)(F)F)C2C1C(C)C` (centres undefined), the GI50 is 15.2 µg/mL in assay [10]; 33.6 µg/mL in assay [1]; 30.3 µg/mL in assay [2]; 37.4 µg/mL in assay [4]; 67.1 µg/mL in [5]; 32 µg/mL in assay [6]. The GI50 in assay [7] was 38.4 µg/mL; in assay [8], 29.8 µg/mL; in [9], 26.3 µg/mL. Further, the results for the TGI in [10] and in assay [1] were 62 µg/mL and 99.1 µg/mL, respectively.
Turning to `CCC(=O)Nc1ccc(N=NN(C)C)cc1`, the TGI in assay [1], in assay [2], in assay [3], in assay [4], in [5] and in [6] was over 100 µM throughout. Besides, the TGI in assay [7], in assay [8] and in assay [9] was over 100 µM each time.
For the compound `CC(O)CC(O)(C(F)(F)F)C(F)(F)F` (centres undefined), the TGI in assay [10], in [1], in assay [2], in assay [3], in assay [4] and in assay [5] was over 10 µM in each case. Moreover, the TGI in [7], in assay [8] and in assay [9] was over 10 µM throughout.
For `N#CC(C(=O)CCC(=O)Nc1cccc(C(F)(F)F)c1)c1ccc(Cl)cc1` (centres undefined), the TGI in [10], in assay [1], in assay [2], in assay [3], in assay [4] and in assay [5] was over 100 µM each time. For the same compound, the TGI in assay [6], in assay [8] and in assay [9] was over 100 µM in each case.
Regarding `CC(=O)OC1C2CCC1C1C2C2(Cl)C(Cl)=C(Cl)C1(Cl)C2(Cl)Cl` (centres undefined), the TGI in assay [1] was 24.1 µM; in assay [2], 25.3 µM; in [3], 26.7 µM; in assay [4], 25.8 µM; in assay [5], 59.8 µM; in assay [6] it was 23.1 µM. For the same compound, the TGI in [7] was found to be 29.8 µM; in assay [8] it was 26.2 µM; in [9], 25.2 µM.
Regarding `CC1=CC(=O)C(C(O)(C(F)(F)F)C(F)(F)F)C(C)(C)C1` (centres undefined), the TGI in assay [10], in assay [1], in assay [2], in assay [3], in assay [4] and in [5] was over 10 µM throughout. Besides, the TGI in [7], in [8] and in assay [9] was over 10 µM each time.
Consider `Clc1cc(Cl)cc(Nc2ccc3cc(OCCCN4CCOCC4)ccc3n2)c1`, for which the results for the GI50 in assay [1], in assay [3] and in [5] were 3.39 µM, 3.76 µM and 3.44 µM, respectively. Besides, the TGI in assay [1], in [3] and in [5] was over 100 µM in each case.
For `O=S1(=O)OCCOS(=O)(=O)C1Cl`, the TGI in assay [10], in [1], in assay [2], in assay [3], in assay [4] and in assay [5] was over 100 µM each time. Moreover, the TGI in assay [7] and in assay [9] was over 100 µM each time.
Consider `O=C(O)CN(c1ccccc1)S(=O)(=O)c1ccc([N+](=O)[O-])cc1`, for which the TGI in [10], in [1], in assay [2], in assay [3], in assay [4] and in [5] was over 100 µM throughout. The TGI in assay [6], in assay [8] and in assay [9] was over 100 µM in each case.
As to `CN(C)CCSc1nccc(-c2cc3ccccc3s2)n1`, the TGI is 59.4 µM in assay [10]; 32.3 µM in [2]; 38 µM in assay [3]; 82.2 µM in [5]; 82.4 µM in assay [6]; over 100 µM in assay [7]. Also, the TGI in assay [8] worked out at 57.1 µM; in assay [9] it was 47.6 µM.
